Measured values: patent EP0275998A2, “Pharmaceutical preparation for treatment of hyperacidity in body fluids” (priority 1987, dated 1988)

Experiments:
[1] = assay type: in vivo, cats
Procedure: In vivo use of preparations of the invention as antiacidotic agents. […] The recovery of the pH to the normal value follows roughly an exponential course with a time constant of 1-3 minutes. […] Results are given in the appended Figure II.

[2] = Plasma concentration of various components after i.v. administration of NMG; assay type: in vivo; conditions: cat
[3] = Titration of rat gastric juice with antacid solutions; assay type: physicochemical; conditions: aqueous solutions: sodium bicarbonate 150 mM, NMG 150 mM, NMGP 20 mg/cc
Source text: Results are given in the appended Figure III.

effect on respiration ([1]; in vivo): no significant effect
effects in the vein through which the solution was administered ([1]; in vivo, iv): No gross deleterious effects
Plasma concentration Potassium ([2]; 1 min. after i.v. NMG 0.3 mmol/kg (before: 4.2)): 4200 µM
Plasma concentration Urea ([2]; 1 min. after i.v. NMG 0.3 mmol/kg (before: 7)): 6900 µM
Plasma concentration Chloride ([2]; 1 min. after i.v. NMG 0.3 mmol/kg (before: 113)): 112000 µM
Plasma concentration Sodium ([2]; 1 min. after i.v. NMG 0.3 mmol/kg (before: 142)): 145000 µM
Plasma concentration Potassium ([2]; 30 min. after i.v. NMG 0.3 mmol/kg (before: 4.2)): 4200 µM
Plasma concentration Urea ([2]; 30 min. after i.v. NMG 0.3 mmol/kg (before: 7)): 6800 µM
Plasma concentration Chloride ([2]; 30 min. after i.v. NMG 0.3 mmol/kg (before: 113)): 113000 µM
Plasma concentration Sodium ([2]; 30 min. after i.v. NMG 0.3 mmol/kg (before: 142)): 144000 µM
Plasma concentration Potassium ([2]; 120 min. after i.v. NMG 0.3 mmol/kg (before: 4.2)): 4200 µM
Plasma concentration Urea ([2]; 120 min. after i.v. NMG 0.3 mmol/kg (before: 7)): 6600 µM
Plasma concentration Chloride ([2]; 120 min. after i.v. NMG 0.3 mmol/kg (before: 113)): 116000 µM
Plasma concentration Sodium ([2]; 120 min. after i.v. NMG 0.3 mmol/kg (before: 142)): 147000 µM
SMILES: CNC[C@H](O)[C@@H](O)[C@H](O)[C@H](O)CO [NMG, 1-deoxy-1-(methylamino)-D-glucitol]
urine pH ([1]; artificially ventilated cats, 1cc/Kg of 300 mM): Parallel increase
partial pressure of CO₂ (P CO2) ([1]; artificially ventilated cats, 1cc/Kg of 300 mM isotonic solution): clear decrease
time constant of recovery of the pH to the normal value ([1]; artificially ventilated cats, 1cc/Kg of 300 mM, roughly exponential course): 1-3 minutes
blood pH ([1]; artificially ventilated cats, rapid (about 15 sec.) administration of 1cc/Kg of 300 mM isotonic solution, immediate elevation from about 7.4): ~7.9
antacid potency in titration of gastric juice [3]: more potent than sodium bicarbonate
